{
  "source": "patent US7425608B2",
  "about": "“Method of making metallopeptides” (Palatin Technologies, Inc., priority 1998, dated 2008)",
  "key": {"[1]": {"molecular_target": "T1, human neutrophil elastase (HNE) (Homo sapiens, UniProt P08246)", "T1 construct": "purchased Sigma (St. Louis, Mo.)", "T1 sequence (P08246 30-267)": "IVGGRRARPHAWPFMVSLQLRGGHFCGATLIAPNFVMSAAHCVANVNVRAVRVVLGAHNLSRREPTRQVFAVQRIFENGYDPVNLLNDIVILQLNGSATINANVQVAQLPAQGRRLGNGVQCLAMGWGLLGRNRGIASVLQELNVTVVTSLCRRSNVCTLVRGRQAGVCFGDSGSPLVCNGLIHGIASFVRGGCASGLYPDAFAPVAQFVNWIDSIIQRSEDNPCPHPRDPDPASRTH", "assay": "Human neutrophil elastase inhibition, spectrophotometric assay with chromogenic p-nitroanilide substrate", "type": "biochemical", "settings": "individually resynthesised ReO metallopeptides Z-Aaa-Ser-Cys-Val-NH2 (deconvolution of the most active pool)", "procedure": "Purified human neutrophil elastase (HNE) was purchased from Sigma (St. Louis, Mo.). The assay was performed spectrophotometrically using a chromogenic p-nitroanilide substrate, MeOSuc-Ala-Ala-Pro-Val-pNA, also purchased from Sigma. The assay protocols were similar to those described by others (e.g., Nakajima K et al: J Biol Chem, 254:4027-4032, 1979). Briefly, 0.05 units of HNE were treated with 1 mM concentration of the library pool in the presence of p-nitroanilide substrate. Spectrophotometric measurement were made at a wavelength of 410 nm. […] Also, among this limited series of compounds, benzyloxycarbonyl group was identified as a preferred R group where Bbb was a Gly, Ala, or Ser residue.\nThe pool with highest activity, Z-Aaa-Ser-Cys-Val-NH2, was deconvoluted by an iterative resynthesis process. All five individual peptides in this pool were synthesized by the methodologies and protocols of Example 10. Each individual peptide was characterized by mass spectrometry and HPLC. A screening assay was performed as generally described in Example 11. The best results were obtained with Leu or Ile in the position Aaa in the peptide chain. […] Substitution of the three residues Ala, Phe, and Lys(N-Z) at Aaa yielded IC50 values in excess of 1,000 μM."}, "[2]": {"settings": "cited from earlier work"}, "[3]": {"settings": "related to the ionic core charge of the metal complex"}},
  "note": "pIC50: −log10 of the molar value. Like-named read-outs stand apart in the source and are kept apart here. *: point of attachment. Cbz = O=C(OCc1ccccc1)*",
  "data": [
    {"compound": "Z-Lys(N,-Z)-Ser-Cys-Val-NH2", "values": [
      {"measurement": "pIC50", "setting": "[1]", "value": "< 3.00"}
    ]},
    {"compound": "Z-Leu-Ser-Cys-Val-NH2 (Cbz-LSCV-NH2; not fully specified; printed as Z-Leu-Ser-Cys-Val-NH2)", "values": [
      {"measurement": "pIC50", "setting": "[1]", "value": 3.86}
    ]},
    {"compound": "O=C(O)CNC(=O)CNC(=O)CNC(=O)CS", "note": "[^99mTc-MAG3, mercaptoacetylglycylglycylglycine, metal not drawn]", "values": [
      {"measurement": "compartmentalisation / excretion / passage across biological barriers", "setting": "[2]; [3]", "value": "excreted through the kidneys"}
    ]},
    {"compound": "Cbz-ISCV-NH2", "values": [
      {"measurement": "pIC50", "setting": "[1]", "value": 3.75}
    ]},
    {"compound": "methoxyisobutylisonitrile [^99mTc-MIBI]", "values": [
      {"measurement": "compartmentalisation / excretion / passage across biological barriers", "setting": "[2]; in vivo", "value": "compartmentalized in heart muscles"}
    ]},
    {"compound": "C/C(=N\\O)C(C)NCC(C)(C)CNC(C)/C(C)=N/O", "note": "(stereo not shown) [^99mTc-HMPAO, hexamethylpropyleneamine oxime, metal not drawn]", "values": [
      {"measurement": "compartmentalisation / excretion / passage across biological barriers", "setting": "[2]; [3]", "value": "pass through the blood-brain barrier"}
    ]},
    {"compound": "CCOC(=O)[C@H](C[S-])[N-]CCN[C@@H](C[S-])C(=O)OCC.[O-2].[Tc]", "note": "[^99mTc-ECD, ethyl cysteinate dimer]", "values": [
      {"measurement": "compartmentalisation / excretion / passage across biological barriers", "setting": "[2]; [3]", "value": "pass through the blood-brain barrier"}
    ]}
  ]
}
